Data taken from patent publication US4760052A, “1,6-dicarba-vasopressin compounds” (Smithkline Beckman Corporation, priority 1987, dated 1988).
*1 amine or outer side, *2 acyl side, *3 side chain or, on linkers, in order; H or OH if unused. Where a SMILES comes first, the peptide text is derived from it. Bridges are numbered along the chain shown (N, C = ends). [ ]: non-standard residue; d: D form. X1 = O=C(CC1(S[*:2])CCCCC1)[*:1]

Experiments:
[1] = molecular target: vasopressin receptors (V2 -receptors) (Sus scrofa, UniProt P32307); assay: biochemical
Sequence of vasopressin receptors (V2 -receptors) (P32307 whole entry): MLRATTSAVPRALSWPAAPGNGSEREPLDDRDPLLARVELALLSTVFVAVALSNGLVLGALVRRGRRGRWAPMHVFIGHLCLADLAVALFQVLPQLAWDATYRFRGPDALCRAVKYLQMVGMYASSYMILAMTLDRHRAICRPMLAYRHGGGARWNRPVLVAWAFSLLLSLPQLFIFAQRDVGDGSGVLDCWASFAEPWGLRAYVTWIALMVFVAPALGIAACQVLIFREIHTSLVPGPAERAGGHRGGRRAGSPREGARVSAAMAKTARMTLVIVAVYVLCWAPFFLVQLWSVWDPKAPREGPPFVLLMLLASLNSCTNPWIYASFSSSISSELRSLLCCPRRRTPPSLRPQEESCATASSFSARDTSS
Experimental: Antagonistic activity toward the natural anti-diuretic hormone (anti ADH activity) is determined, in vitro, in the medullary tissue of hog or human kidneys and, in vivo, in the hydropenic rat.
These values represent total and non specific binding, respectively.

[2] = molecular target: vasopressin stimulated adenylate cyclase; assay: vasopressin stimulated adenylate cyclase activity, kidney medullary membrane; assay type: biochemical; details: Swine; antagonism of vasopressin stimulated adenylate cyclase
Experimental: In the test procedure for assay of adenylate cyclase activity, the amount of ^32 P/cAMP formed in the absence of medullary membrane is determined (blank). The blank value is subtracted from all experimental data. The compound is tested for its effect on basal adenylate cyclase activity and/or on vasopressin stimulated activity. Each determination is carried out in triplicate. The Ka value is derived from a Lineweaver-Burkeplot. Rel. Vmax =(Vmax drug/Vmax vasopressin) x 100. Ki =I/[Ka'/Ka)-1] where I is the concentration of the antagonist and Ka' and Ka are the concentrations of vasopressin required to give half maximal activity of adenylate cyclase in the presence and absence of antagonist, respectively.

[3] = test system: hydropenic rat; assay: Hydropenic Rat Screen (anti-ADH activity in vivo); details: intraperitoneal, dose required to lower urine osmolality to 300 m-Osmoles/kg
Experimental: The assay for anti-ADH activity in vivo is the hydropenic rat protocol described below:
Food and water are removed from male rats approximately 18 hours prior to testing. Animals are housed 4 per metabolism cage. At 0 hour, the test compound is administered intraperitoneally to the test group and an equivalent volume of vehicle is administered to both control groups (fasted and non-fasted). Urine volume and osmolality are measured every hour for 4 hours. Test values are recorded as ml of urine excreted (cumulative), mEg/rat electrolyte excreted, mg/rat urea excreted, and osmolality in milli-Osmoles/kg H2 O. A […] is used to determine significance. ED300 is defined as the dose of compound (μg/kg) required to lower urine osmolality to 300 m-Osmoles/kg.

Row | Structure (SMILES) | Kb [1] | Ki [2] | ED300 [3]
1 | CCOc1ccc(C[C@H]2NC(=O)CC3(CCCCC3)SSC[C@@H](C(=O)N3CCC[C@H]3C(=O)N[C@@H](CCCNC(=N)N)C(N)=O)NC(=O)[C@H](CC(N)=O)NC(=O)[C@H](C(C)C)NC(=O)[C@H](Cc3ccccc3)NC2=O)cc1 [A, [1(mercapto-β,cyclopentamethylenepropionic acid)2-(O--ethylD-tyrosine)-4-valine-8-arginine-9-desglycine]vasopressin, reference compound] ([dY](Et)FVNCPR-NH2; linker N-5 via X1) | 0.012 µM |  | 
2 | CCOc1ccc(C[C@H]2NC(=O)CC3(CCCCC3)SSC[C@H](C(=O)N3CCC[C@H]3C(=O)N[C@@H](CCCNC(=N)N)C(N)=O)NC(=O)[C@H](CC(N)=O)NC(=O)[C@H](C(C)C)NC(=O)[C@H](Cc3ccccc3)NC2=O)cc1 [B, reference compound] ([dY](Et)FVN[dC]PR-NH2; linker N-5 via X1) | 0.17 µM |  | 
3 | CCOc1ccc(C[C@H]2NC(=O)CC3(CCCCC3)CCC[C@@H](C(=O)N3CCC[C@H]3C(=O)N[C@@H](CCCNC(=N)N)C(N)=O)NC(=O)[C@H](CC(N)=O)NC(=O)[C@H](C(C)C)NC(=O)[C@H](Cc3ccccc3)NC2=O)cc1 [Compound C, [1,6(6,6-cyclopentamethylene-2-amino-L-suberic acid)2-(O--ethylD-tyrosine)-4-valine-9-desglycine]vasopressin] | 0.0082 µM | 0.0043 µM | 8.9 µg/kg
4 | CCOc1ccc(C[C@H]2NC(=O)CC3(CCCCC3)CCC[C@H](C(=O)N3CCC[C@H]3C(=O)N[C@@H](CCCNC(=N)N)C(N)=O)NC(=O)[C@H](CC(N)=O)NC(=O)[C@H](C(C)C)NC(=O)[C@H](Cc3ccccc3)NC2=O)cc1 [Compound D, [1,6(6,6-cyclopentamethylene-2-amino-D-suberic acid)2-(O--ethy1D-tyrosine)-4-valine-9-desglycine]vasopressin] | 0.072 µM |  | 
